Laboratory results as given in article PMC6136660 (Steroids, 2018).
Read-outs that look alike come from different tables or passages of the source.

Experiments:
[1] = Phase 1 single ascending dose (SAD) pharmacokinetics, fasted; format: in vivo, human; conditions: for Vd/F: read-out: Vz/F; for k el: read-out: λz (converted)
Description: This clinical trial was a randomized, double-blind, placebo controlled single ascending (SAD) and multiple ascending (MAD) study to evaluate the safety, tolerability, and pharmacokinetics of vamorolone in health adult subjects. The study protocol and its amendments were reviewed and approved by an Institutional Review Board. It was conducted in accordance with the principles of the Declaration of Helsinki in place at the time of study conduct and in compliance with the International Council on Harmonisation (ICH) E6 Guideline for Good Clinical Practice.
In the SAD part of the study, 7 cohorts were to be enrolled. Eight subjects were assigned to each of Cohorts 1 to 5 and 7 and received a single oral dose of vamorolone (planned as 0.1 mg/kg, 0.3 mg/kg, 1.0 mg/kg, 3.0 mg/kg, 8.0 mg/kg, and 20.0 mg/kg, respectively) or placebo under fasted conditions. Six subjects were assigned to Cohort 6 and were administered a single oral dose of 8.0 mg/kg vamorolone within 30 min of beginning a high fat/high calorie meal.
Subjects in Cohorts 1 through 5 and 7 were randomized to receive vamorolone or placebo in a 3:1 ratio (6 subjects received vamorolone, and 2 subjects received placebo) sequentially. In Cohort 1, 3 sentinel subjects were administered vamorolone or placebo in a 2:1 ratio. Following a review of sentinel safety and tolerability data (including reported adverse events [AEs], clinical laboratory tests, vital signs, and electrocardiograms [ECGs]), the remaining 5 subjects were randomized to receive vamorolone or placebo in a 4:1 ratio and dosed no earlier than 48 h after sentinel dosing. In Cohorts 2 to 5, and 7, subjects were administered vamorolone or placebo in a 3:1 ratio. Once Cohort 5 was completed and safety data had been reviewed, subjects in Cohort 6 were administered a single oral dose of 8.0 mg/kg vamorolone within 30 min of beginning a standard high fat/high calorie meal.
The initial starting dose for the vamorolone SAD study was chosen based on 10% of the NOAEL in the most sensitive species (mouse) (0.1 mg/kg). Doses were then escalated by 3-fold increments for 6 dose groups (0.1, 0.3, 1.0, 3.0, 9.0, 20.0 mg/kg). Eight adult male volunteers were studied in each dose group (6 drug-treated, 2 placebo).

[2] = system: adrenal axis (first-in-morning serum cortisol); test: First-in-morning serum cortisol (adrenal suppression biomarker), MAD; format: in vivo
Description: All biomarkers were analyzed using standard immunoassays by PRA.
Adrenal suppression is the consequence of a negative feedback loop between high circulating cortisol and pharmacological glucocorticoids and adrenal function, leading to loss of responsiveness of the adrenal cortex to ACTH. Adrenal suppression can be seen both acutely (hours after a single dose of pharmacological glucocorticoids), and chronically. Chronic treatment with glucocorticoids leads to chronic deficiencies in multiple steroidal hormones, including cortisol, testosterone, 17-hydroxyprogesterone, corticosterone, and 11-deoxycortisol. The resulting hormonal imbalance puts patients at increased risk for a series of safety concerns. One is adrenal crisis (inability to mount a cortisol stress response after trauma, severe illness, or surgery, with ensuring risk for shock and death). Other safety concerns in children include delay of puberty and growth stunting. Adrenal suppression can be measured with first-in-morning serum cortisol, reflective of the endogenous diurnal cortisol peak pre-awakening. Measurement of first-in-morning cortisol 24 h after the last drug dose indicates whether the drug has suppressed the normal diurnal cortisol response.
First in morning serum cortisol levels were measured in all Phase 1 MAD subjects, at baseline prior to first administration of vamorolone or placebo, 24 h after the first dose (acute suppression), and 24 h after 14 days of daily dosing (chronic suppression) (Fig. 4). The two placebo subjects from each dose group were combined into the same panel. […] At 9.0 mg/kg/day, there was a decline in morning cortisol in all subjects, with 1 subject below the 3.6 µg/dL after first dose, and 3 of 6 subjects after two weeks of daily dosing. […] One subject stopped dosing due to mild elevation of liver enzymes, and their morning cortisol returned to normal levels within a few days of cessation of dosing (Fig. 4). Direct head-to-head comparisons to prednisone-treated subjects were not done in this Phase 1 trial, but approximate comparisons can be done to published literature. Both Fleishaker et al. and we tested serum cortisol 24 h after the first dose of drug. Fleishaker et al. studied doses of 2.5, 5, 10, 20 mg, 40 mg, and 60 mg, with an average weight of subjects of 80 kg. […] For vamorolone, the dose groups showing decreases in morning cortisol 24 h after the initial dose were 3 mg/kg (9 µg/dL cortisol), 9 mg/kg (6 µg/dL cortisol), and 20 mg/kg (4 µg/dL cortisol). […] Two week prednisone treatment data for morning cortisol was not published.

[3] = male, human, plasma, single oral 0.1 mg/kg, fasted, geometric mean (%CV)
[4] = male, human, plasma, single oral 0.3 mg/kg, fasted, geometric mean (%CV)
[5] = male, human, plasma, single oral 1 mg/kg, fasted, geometric mean (%CV)
[6] = male, human, plasma, single oral 3 mg/kg, fasted, geometric mean (%CV)
[7] = male, human, plasma, single oral 8 mg/kg, fasted, geometric mean (%CV)
[8] = male, human, plasma, single oral 20 mg/kg, fasted, geometric mean (%CV)

SMILES: C[C@@H]1C[C@H]2[C@@H]3CCC4=CC(=O)C=C[C@]4(C)C3=CC[C@]2(C)[C@@]1(O)C(=O)CO [vamorolone]
- slope of log plot of AUC(inf) vs dose ([1]; SAD 0.1-20 mg/kg): ~1.0
- slope of log plot of Cmax vs dose ([1]; SAD 0.1-20 mg/kg): < 1.0
- CL/F ([1]; male, human, plasma, oral, across single 0.1 to 20 mg/kg doses, fasted, read-out: CL/F, range of geometric mean values): 29.3 to 38.5 mL/min/kg
- half-life ([1]; male, human, plasma, oral, healthy subjects, approximate overall, read-out: half-life (converted)): ~3 h
- AUC(0-inf) [1, 3]: 49.5 ng·h/mL
- AUC(0-t) [1, 3]: 41.9 ng·h/mL
- Cmax [1, 3]: 13.1 ng/mL
- CL/F ([1]; male, human, plasma, single oral 0.1 mg/kg, fasted, geometric mean (%CV), read-out: CL/F (converted)): 33.7 mL/min/kg
- Vd/F [1, 3]: 4.98 L/kg
- half-life ([1]; male, human, plasma, single oral 0.1 mg/kg, fasted, geometric mean (%CV), read-out: t½ (converted)): 1.71 h
- k el [1, 3]: 0.000113 s⁻¹
- Tmax ([1]; male, human, plasma, single oral 0.1 mg/kg, fasted, median, read-out: Tmax): 1.5 h
- AUC(0-inf) [1, 4]: 170 ng·h/mL
- AUC(0-t) [1, 4]: 161 ng·h/mL
- Cmax [1, 4]: 50.8 ng/mL
- CL/F ([1]; male, human, plasma, single oral 0.3 mg/kg, fasted, geometric mean (%CV), read-out: CL/F (converted)): 29.3 mL/min/kg
- Vd/F [1, 4]: 4.07 L/kg
- half-life ([1]; male, human, plasma, single oral 0.3 mg/kg, fasted, geometric mean (%CV), read-out: t½ (converted)): 1.6 h
- k el [1, 4]: 0.00012 s⁻¹
- Tmax ([1]; male, human, plasma, single oral 0.3 mg/kg, fasted, median, read-out: Tmax): 1.5 h
- AUC(0-inf) [1, 5]: 500 ng·h/mL
- AUC(0-t) [1, 5]: 486 ng·h/mL
- Cmax [1, 5]: 122 ng/mL
- CL/F ([1]; male, human, plasma, single oral 1 mg/kg, fasted, geometric mean (%CV), read-out: CL/F (converted)): 33.3 mL/min/kg
- Vd/F [1, 5]: 5.22 L/kg
- half-life ([1]; male, human, plasma, single oral 1 mg/kg, fasted, geometric mean (%CV), read-out: t½ (converted)): 1.81 h
- k el [1, 5]: 0.000106 s⁻¹
- Tmax ([1]; male, human, plasma, single oral 1 mg/kg, fasted, median, read-out: Tmax): 1.75 h
- AUC(0-inf) [1, 6]: 1600 ng·h/mL
- AUC(0-t) [1, 6]: 1580 ng·h/mL
- Cmax [1, 6]: 305 ng/mL
- CL/F ([1]; male, human, plasma, single oral 3 mg/kg, fasted, geometric mean (%CV), read-out: CL/F (converted)): 31.3 mL/min/kg
- Vd/F [1, 6]: 6.76 L/kg
- half-life ([1]; male, human, plasma, single oral 3 mg/kg, fasted, geometric mean (%CV), read-out: t½ (converted)): 2.5 h
- k el [1, 6]: 7.7e-05 s⁻¹
- Tmax ([1]; male, human, plasma, single oral 3 mg/kg, fasted, median, read-out: Tmax): 1.75 h
- AUC(0-inf) [1, 7]: 3600 ng·h/mL
- AUC(0-t) [1, 7]: 4000 ng·h/mL
- Cmax [1, 7]: 718 ng/mL
- CL/F ([1]; male, human, plasma, single oral 8 mg/kg, fasted, geometric mean (%CV), read-out: CL/F (converted)): 37 mL/min/kg
- Vd/F [1, 7]: 10.4 L/kg
- half-life ([1]; male, human, plasma, single oral 8 mg/kg, fasted, geometric mean (%CV), read-out: t½ (converted)): 3.25 h
- k el [1, 7]: 5.93e-05 s⁻¹
- Tmax ([1]; male, human, plasma, single oral 8 mg/kg, fasted, median, read-out: Tmax): 1.78 h
- AUC(0-inf) [1, 8]: 8650 ng·h/mL
- AUC(0-t) [1, 8]: 8540 ng·h/mL
- Cmax [1, 8]: 1650 ng/mL
- CL/F ([1]; male, human, plasma, single oral 20 mg/kg, fasted, geometric mean (%CV), read-out: CL/F (converted)): 38.5 mL/min/kg
- Vd/F [1, 8]: 14.2 L/kg
- half-life ([1]; male, human, plasma, single oral 20 mg/kg, fasted, geometric mean (%CV), read-out: t½ (converted)): 4.26 h
- k el [1, 8]: 4.52e-05 s⁻¹
- Tmax ([1]; male, human, plasma, single oral 20 mg/kg, fasted, median, read-out: Tmax): 1.5 h
- Tmax ([1]; male, human, serum, oral suspension formulation (4% vamorolone by weight), read-out: time of peak serum concentrations): ~3 h
- CL/F ([1]; single oral 0.1 mg/kg, fasted, geometric mean (%CV)): 168 (20.8) (6) L/h
- CL/F ([1]; single oral 0.3 mg/kg, fasted, geometric mean (%CV)): 142 (14.4) (6) L/h
- CL/F ([1]; single oral 1 mg/kg, fasted, geometric mean (%CV)): 165 (12.0) (6) L/h
- CL/F ([1]; single oral 3 mg/kg, fasted, geometric mean (%CV)): 152 (18.5) (6) L/h
- CL/F ([1]; single oral 8 mg/kg, fasted, geometric mean (%CV)): 196 (57.6) (4) L/h
- CL/F ([1]; single oral 20 mg/kg, fasted, geometric mean (%CV)): 180 (29.8) (4) L/h
- subjects with morning cortisol below 3.6 µg/dL (adrenal suppression) ([2]; 9.0 mg/kg/day, after first dose, n = 6): 1 subjects
- subjects with morning cortisol below 3.6 µg/dL (adrenal suppression) ([2]; 9.0 mg/kg/day, after two weeks of daily dosing): 3 of 6
- subjects with morning cortisol below 3.6 µg/dL (adrenal suppression) ([2]; 20.0 mg/kg/day, after a single dose): 4 of 6
- subjects with morning cortisol below 3.6 µg/dL (adrenal suppression) ([2]; 20.0 mg/kg/day, after two weeks of dosing): 5/5
- adrenal suppression ([2]; 1.0 or 3.0 mg/kg/day dose groups, acute and 14 days): No evidence of adrenal suppression
- difference in potency for acute adrenal suppression (prednisone > vamorolone) ([2]; 24 h after the first dose, vamorolone data vs published prednisone data (ref 6)): 10 fold
- adrenal suppression potency relative to traditional glucocorticoids ([2]; seen at 9.0 and 20.0 mg/kg/day): ~ 1%
